Assay results: paper PMC8583966, “Proteasome Inhibitors and Their Pharmacokinetics, Pharmacodynamics, and Metabolism” (International Journal of Molecular Sciences, 2021)
Where two headings read alike, the source gives them in different places.

How the values were obtained:
[1] = parameters: method as in PMID 30128949; conditions: AUC0–816h time-proportional pooled plasma, single 4.1-mg oral dose [14C]-ixazomib, four patients; cited from earlier work
[2] = KZR-616 and metabolites in human plasma of SLE patients; type: in vivo; conditions: KZR-616 75 mg
Description: Following repeat-dose SC administration, there was no apparent accumulation of immunoproteasome inhibition, although cumulative constitutive proteasome inhibition in whole blood was observed, likely due to the irreversible mechanism of KZR-616 inhibition and the inability of enucleated red blood cells (the major cellular source of constitutive proteasome) to produce new proteasomes. […] As in carfilzomib, and oprozomib, KZR-616 was not stable when incubated in HLMs in the absence of NADPH, indicating non-CYP enzymes were involved in its clearance. […] In pooled plasma samples from 4 patients with systemic lupus erythematous (SLE) receiving a KZR-616 dose of 75 mg, the diol was the major metabolite, and other metabolites from oxidation, hydrolysis + dehydrogenation, oxidation + dehydrogenation double oxidation were less than 1% of the total peak area of all components (Table 2).

[3] = PK of KZR-616 and analogs after single SC dose in monkeys; conditions: cynomolgus monkey, in vivo, single SC dose 3 mg/kg
Description: (§1) To further evaluate the role of epoxide hydrolase in the metabolism of KZR-616, two analogs were selected for PK and PD studies in cynomolgus monkey to compare with KZR-616. […] Following single subcutaneous (SC) administration to monkeys at 3 mg/kg of these 3 compounds AUC values were the highest with KZR-59240, followed by KZR-616 and KZR-59177. The PK of both parent and diol for each compound were consistent with the stability results in MLM in the absence of NADPH, in which the CYP enzymes were not activated (Table 3), and, as predicted, the diol derivatives were determined to be the major metabolites for all compounds. The PK and PD of KZR-616 was assessed using 2 different drug product formulations, one containing 10% (w/v) PS-80, and the other 2% (w/v) trehalose.

[4] = PK of KZR-616 in two drug product formulations; type: in vivo; conditions: 10% (w/v) PS-80 vs 2% (w/v) trehalose formulation
Description: as §1

LMP7 = system: LMP7; parameters: method as in PMID 30380863; conditions: mouse arthritis model, active dose; cited from earlier work
LMP2 = system: LMP2; parameters: method as in PMID 30380863; conditions: mouse arthritis model, active dose; cited from earlier work
[5] = healthy volunteers, SC; cited from earlier work
[6] = parameters: method as in PMID 34234005; conditions: absence of NADPH; cited from earlier work
proteasome subunits = conditions: summary table; cited from earlier work
[7] = summary table; cited from earlier work
[8] = summary table; cited from earlier work; remark: listed apart in the source
[9] = system: β5 subunit of the constitutive proteasome; conditions: patients, doses ≥15 mg/m2; cited from earlier work
[10] = system: LMP7 subunit of the immunoproteasome; conditions: patients, doses ≥15 mg/m2; cited from earlier work
β1 = system: β1; parameters: method as in PMID 20110052; conditions: whole blood, doses as high as 45 mg/m2; cited from earlier work
β2 = system: β2; parameters: method as in PMID 20110052; conditions: whole blood, doses as high as 45 mg/m2; cited from earlier work
proteasome CT-L activity = conditions: following the first dose for each week of dosing; cited from earlier work
[11] = in vivo; cited from earlier work
[12] = human, in vivo, iv; cited from earlier work
[13] = in vivo; cited from earlier work; remark: listed apart in the source
[14] = parameters: method as in PMID 19348473; conditions: mice; cited from earlier work
[15] = parameters: method as in PMID 19348473; conditions: rats; cited from earlier work
[16] = parameters: method as in PMID 19348473; conditions: dogs; cited from earlier work
[17] = single agent, cited from earlier work
proteasome [18] = system: proteasome; parameters: method as in PMID 31142508; conditions: at MTD, 4 h post-dose; cited from earlier work
[19] = parameters: method as in PMID 28428366; conditions: human hepatocytes, quantified with synthesized standards; cited from earlier work
[20] = parameters: method as in PMID 28428366; conditions: pooled HLMs, cited from earlier work
[21] = Bortezomib plasma pharmacokinetics in patients; type: in vivo, human; conditions: CYP IC50 vs Cmax at 1.3 mg/m2
Description: The relationship between plasma concentration and proteasome inhibition was assessed at 1, 6, and 24 h over a 24-hour period.

20S proteasome = conditions: cited from earlier work; for inhibition of 20S proteasome activity: patients, single agent, after 1-h treatment
[22] = cited from earlier work
CYP450 isozyme 1A2 = conditions: human liver microsomes (~7 µg/mL); cited from earlier work
CYP450 isozyme 2C9 = conditions: human liver microsomes (~7 µg/mL); cited from earlier work
CYP450 isozyme 2C19 = conditions: human liver microsomes (~7 µg/mL); cited from earlier work
CYP450 isozyme 2D6 = conditions: human liver microsomes (~7 µg/mL); cited from earlier work
CYP450 isozyme 3A4 = conditions: human liver microsomes (~7 µg/mL); cited from earlier work
[23] = system: caspase-like activity of the 20S proteasome; conditions: relative to β5 and LMP7; cited from earlier work
[24] = system: trypsin-like activity of the 20S proteasome; conditions: relative to β5 and LMP7; cited from earlier work
proteasome [25] = system: proteasome; parameters: method as in PMID 30117017; conditions: whole blood, IV administration; cited from earlier work
[26] = patients, cited from earlier work
CYP3A4 = conditions: at higher concentrations, recombinant CYP microsomes; cited from earlier work
CYP1A2 = conditions: at higher concentrations, recombinant CYP microsomes; cited from earlier work
CYP2B6 = conditions: at higher concentrations, recombinant CYP microsomes; cited from earlier work

CC(C)C[C@@H](O)NC(=O)[C@H](Cc1ccccc1)NC(=O)c1cnccn1 [M1]
% of plasma TRA [1]: 18.9%

COc1ccc([C@@H](O)[C@H](NC(=O)[C@H](C)NC(=O)CN2CCOCC2)C(=O)N[C@@H](CC2=CCCC2)C(=O)[C@@]2(C)CO2)cc1 [KZR-616, (2S,3R)-N-((S)-3-(Cyclopent-1-en-1-yl)-1-((R)-2-methyloxiran-2-yl)-1oxopropan-2-yl)-3-hydroxy-3-(4-methoxyphenyl)-2-((S)-2-(2morpholinoacetamido)propanamido)propenamide]
Component in Plasma as % of Total XIC (Extracted Ion Chromatogram) Area ([2]; Subject 110-004, SLE patient): 61.2%
Component in Plasma as % of Total XIC (Extracted Ion Chromatogram) Area ([2]; Subject 112-021, SLE patient): 49.0%
Component in Plasma as % of Total XIC (Extracted Ion Chromatogram) Area ([2]; Subject 113-002, SLE patient): 46.5%
Component in Plasma as % of Total XIC (Extracted Ion Chromatogram) Area ([2]; Subject 116-012, SLE patient): 51.8%
AUC(0-inf) [3]: 740 ± 188 ng·h/mL
Cmax [3]: 441 ± 114 ng/mL
Tmax [3]: 20 ± 8.16 min
half-life [3]: 63 ± 7.8 min
difference in Cmax between formulations [4]: 2 fold
total exposure (AUC) in both formulations [4]: equivalent
LMP7 inhibition (LMP7): complete
LMP2 inhibition (LMP2): ~ 40%
Tmax [5]: < 1 h
t1/2 [5]: < 4 h
stability in HLMs [6]: not stable
Subunit Inhibition (proteasome subunits): LMP2 and LMP7
Absorption [7]: fast
Clearance [7]: fast
Metabolic Pathwas [8]: Microsomal epoxide hydrolase

CC(C)C[C@H](NC(=O)[C@H](CCc1ccccc1)NC(=O)CN1CCOCC1)C(=O)N[C@@H](Cc1ccccc1)C(=O)N[C@@H](CC(C)C)C(=O)[C@@]1(C)CO1 [Carfilzomib]
average inhibition of β5 [9]: greater than 83%
average inhibition of LMP7 [10]: greater than 83%
inhibition of β1 (β1): Less than 18%
inhibition of β2 (β2): Less than 18%
time proteasome inhibition was maintained (proteasome CT-L activity): ≥ 48 h
Subunit Inhibition (proteasome subunits): ß5 and LMP7
rates of peripheral neuropathy lower than with bortezomib [11]: > 60%
t1/2 [12]: < 30 min
dose excreted intact [13]: less than 1%

NC(=O)[C@H](Cc1ccccc1)NC(=O)c1cnccn1 [M3]
% of plasma TRA [1]: 10.6%

COC[C@H](NC(=O)c1cnc(C)s1)C(=O)N[C@@H](COC)C(=O)N[C@@H](Cc1ccccc1)C(=O)[C@@]1(C)CO1 [Oprozomib]
oral bioavailability F% [14]: 17%
oral bioavailability F% [15]: 21%
oral bioavailability F% [16]: 39%
maximum tolerated dose (MTD) ([17]; first 2 days every 7 days of a 14-day cycle (2/7 schedule)): 300 mg/day
maximum tolerated dose (MTD) ([17]; first 5 days of a 14-day cycle (5/14 schedule)): 240 mg/day
proteasome inhibition (proteasome [18]): ≥ 70%
percent of total oprozomib recovered as component [19]: 20%
intrinsic clearance ([20]; absence of NADPH): 20.2 ± 1.8 µL/min/mg protein
intrinsic clearance ([20]; presence of NADPH): 70.7 ± 2.9 µL/min/mg protein
increase of intrinsic clearance by NADPH ([20]; presence vs absence of NADPH): 3.5 fold
Subunit Inhibition (proteasome subunits): ß5 and LMP7
Absorption [7]: fast
Clearance [7]: fast
Metabolic Pathwas [8]: Microsomal epoxide hydrolase peptidases, CYPs

CC(C)C[C@H](NC(=O)[C@H](Cc1ccccc1)NC(=O)c1cnccn1)B(O)O [Bortezomib]
CYP450 IC50 values higher than Cmax [21]: 60 fold
variation of proteasome inhibition (20S proteasome; 1 h post-dose): ~ 70%
recovery of proteasome activity (20S proteasome; 12 h after administration): 50%
Time to Emax (median) (20S proteasome; IV administration): 5 min
mean maximum inhibition (Emax) (20S proteasome; IV administration): approximately 69%
Time to Emax (median) (20S proteasome; SC administration): 120 min
time to complete recovery of proteasome activity (20S proteasome; after administration): ≤ 72 h
time to full recovery of proteasome activity (20S proteasome; after dosing): 36 h
time by which recovery of proteasome activity was observed (20S proteasome; assessed at 1, 6 and 24 h): ≤ 24 h
inhibition of 20S proteasome activity (20S proteasome; 0.40 mg/m2): 36%
inhibition of 20S proteasome activity (20S proteasome; 1.04 mg/m2): 60%
inhibition of 20S proteasome activity (20S proteasome; 1.20 mg/m2): 65%
inhibition of 20S proteasome activity (20S proteasome; 1.38 mg/m2): 74%
variation of plasma concentration ([22]; 1 h post-dose): ~ 800%
increase in bortezomib exposure ([22]; DDI, plus ketoconazole (CYP3A4 inhibitor), patients): 1.4 fold
IC50 (CYP450 isozyme 1A2): > 18 µM
IC50 (CYP450 isozyme 2C9): > 18 µM
IC50 (CYP450 isozyme 2C19): > 18 µM
IC50 (CYP450 isozyme 2D6): > 18 µM
IC50 (CYP450 isozyme 3A4): > 18 µM
Subunit Inhibition (proteasome subunits): ß5 and LMP7
Absorption [7]: fast
Clearance [7]: fast
Metabolic Pathwas [8]: Hydrolases, CYPs

CC(C)C[C@H](NC(=O)CNC(=O)c1cc(Cl)ccc1Cl)B(O)O [Ixazomib]
less potency than for chymotrypsin-like activities [23]: 10 fold
less potency than for chymotrypsin-like activities [24]: 1000 fold
time to recovery of proteasome inhibition (proteasome [25]): ≤ 24 h
Tmax ([26]; oral): approximately 1 h
apparent clearance [26]: ~ 1.9 L/h
contribution to metabolism (CYP3A4): 42%
contribution to metabolism (CYP1A2): 26%
contribution to metabolism (CYP2B6): 16%
% of plasma TRA [1]: 54.2%
Subunit Inhibition (proteasome subunits): ß5 and LMP7
Absorption [7]: fast
Clearance [7]: fast
Metabolic Pathwas [8]: Hydrolases, CYPs

C[C@@](O)(CO)C(=O)[C@@H](N)Cc1ccccc1 [diol of PR-025]
percent of total oprozomib recovered as component [19]: ~ 7%

CC(C)C[C@H](O)NC(=O)[C@H](Cc1ccccc1)NC(=O)c1cnccn1 [M2]
% of plasma TRA [1]: 7.91%

COC[C@H](NC(=O)c1cnc(C)s1)C(=O)N[C@@H](COC)C(=O)N[C@@H](Cc1ccccc1)C(=O)[C@](C)(O)CO [PR-176]
percent of total oprozomib recovered as component [19]: ~ 55%

COc1ccc(C(O)C(NC(=O)C(C)NC(=O)CN2CCOCC2)C(=O)NC(CC2=CCCC2)C(=O)C(C)(O)CO)cc1 (stereo not shown) [KZR-59587]
Component in Plasma as % of Total XIC (Extracted Ion Chromatogram) Area ([2]; Subject 110-004, SLE patient): 33.8%
Component in Plasma as % of Total XIC (Extracted Ion Chromatogram) Area ([2]; Subject 112-021, SLE patient): 45.8%
Component in Plasma as % of Total XIC (Extracted Ion Chromatogram) Area ([2]; Subject 113-002, SLE patient): 47.9%
Component in Plasma as % of Total XIC (Extracted Ion Chromatogram) Area ([2]; Subject 116-012, SLE patient): 43.8%
